From PubChem BioAssay (NCI)
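Here, GI50 denotes the concentration required for 50% inhibition of growth. The concentration for full growth arrest is given as TGI.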

Key:
[1] = test system: HL-60(TB) leukemia; assay: DTP human tumour cell line panel, 384-well format
[2] = test system: MOLT-4 leukemia; assay: DTP human tumour cell line panel, 384-well format

SMILES: CS(=O)(=O)OCCCCOS(C)(=O)=O
- GI50 [1]: 17.7 µM
- GI50 [2]: 9.66 µM
- TGI [2]: 21.8 µM
